According to ChEMBL document CHEMBL5634148, “Synthesis and evaluation of novel pleuromutilin derivatives targeting the 50S ribosomal subunit for antibacterial ability” (Eur J Med Chem, 2023):
Converted amounts (≈) assume the structure as drawn.

What was measured:
Pasteurella multocida = assay: Antibacterial activity against Pasteurella multocida CVCC 1659 assessed as bacterial growth inhibition incubated for 18 to 24 hrs by NCCLS based assay; type: functional; details: time 18-24 hrs
[1] = system: Staphylococcus epidermidis; assay: Antibacterial activity against methicillin-resistant Staphylococcus epidermidis ATCC 51625 assessed as bacterial growth inhibition incubated for 18 to 24 hrs by NCCLS based assay; type: functional; details: time 18-24 hrs
Escherichia coli = assay: Antibacterial activity against Escherichia coli CICC 10389 assessed as bacterial growth inhibition incubated for 18 to 24 hrs by NCCLS based assay; type: functional; details: time 18-24 hrs
Staphylococcus aureus [2] = assay: Antibacterial activity against methicillin-resistant Staphylococcus aureus BNCC 337371 assessed as bacterial growth inhibition incubated for 18 to 24 hrs by NCCLS based assay; type: functional; details: time 18-24 hrs
Enterococcus faecalis = assay: Antibacterial activity against Enterococcus faecalis assessed as bacterial growth inhibition incubated for 18 to 24 hrs by NCCLS based assay; type: functional; details: time 18-24 hrs
Streptococcus agalactiae = assay: Antibacterial activity against Streptococcus agalactiae assessed as bacterial growth inhibition incubated for 18 to 24 hrs by NCCLS based assay; type: functional; details: time 18-24 hrs
Staphylococcus aureus [3] = assay: Antibacterial activity against Staphylococcus aureus ATCC 25923 assessed as bacterial growth inhibition incubated for 18 to 24 hrs by NCCLS based assay; type: functional; details: time 18-24 hrs
Staphylococcus aureus [4] = assay: Bactericidal activity against methicillin-resistant Staphylococcus aureus ATCC 29213 incubated for 24 hrs by time kill assay; type: functional, organism-based
Staphylococcus aureus [5] = assay: Bactericidal activity against Staphylococcus aureus incubated for 24 hrs by time kill assay; type: functional, organism-based
Staphylococcus aureus [6] = assay: Antibacterial activity against Staphylococcus aureus assessed as reduction in bacterial count at 6 times MIC incubated for 24 hrs by time kill assay; type: functional
Staphylococcus aureus [7] = assay: Antibacterial activity against methicillin-resistant Staphylococcus aureus ATCC 29213 assessed as reduction in bacterial count at 6 times MIC incubated for 24 hrs by time kill assay; type: functional
[8] = Toxicity in neutropenic Balb/c mouse model infected with methicillin-resistant Staphylococcus aureus assessed as animal survival at 40 mg/kg, iv measured for 7 days; type: organism-based; details: in vivo, 168 h, time 7 day
Staphylococcus aureus [9] = assay: Antibacterial activity against methicillin-resistant Staphylococcus aureus infected in neutropenic Balb/c mouse model assessed as reduction in bacterial load in lungs at 15 mg/kg, iv measured after 5 days; type: functional; details: time 5 day
Staphylococcus aureus [10] = assay: Antibacterial activity against methicillin-resistant Staphylococcus aureus infected in neutropenic Balb/c mouse model assessed as reduction in bacterial load in lungs at 40 mg/kg, iv measured after 5 days; type: functional; details: time 5 day

SMILES	MIC (Pasteurella multocida) [µg/mL]	MIC [1] [µg/mL]	MIC (Escherichia coli) [µg/mL]	MIC (Staphylococcus aureus [2]) [µg/mL]	MIC (Enterococcus faecalis) [µg/mL]	MIC (Streptococcus agalactiae) [µg/mL]	MIC (Staphylococcus aureus [3]) [µg/mL]	Activity (Staphylococcus aureus [4])	Activity (Staphylococcus aureus [5])	log(activity) (Staphylococcus aureus [6])	log(activity) (Staphylococcus aureus [7])	Activity [8] [%]	Activity (Staphylococcus aureus [9]) [log10CFU/ml]	Activity (Staphylococcus aureus [10]) [log10CFU/ml]
C=C[C@]1(C)C[C@@H](OC(=O)CSc2ncnc(NCC)n2)[C@]2(C)[C@H](C)CC[C@]3(CCC(=O)[C@H]32)[C@@H](C)[C@@H]1O	≥ 64	0.125 (≈ 0.242 µM)	≥ 64	0.125 (≈ 0.242 µM)	16 (≈ 31 µM)	0.013 (≈ 0.0252 µM)	0.125 (≈ 0.242 µM)	–	–	–	–	–	–	–
C=C[C@]1(C)C[C@@H](OC(=O)CSc2ncnc(N3CCN(C)CC3)n2)[C@]2(C)[C@H](C)CC[C@]3(CCC(=O)[C@H]32)[C@@H](C)[C@@H]1O	≥ 64	0.125 (≈ 0.219 µM)	≥ 64	0.125 (≈ 0.219 µM)	≥ 64	4 (≈ 7 µM)	0.125 (≈ 0.219 µM)	–	–	–	–	–	–	–
C=C[C@]1(C)C[C@@H](OC(=O)CSc2ncnc(NCCN)n2)[C@]2(C)[C@H](C)CC[C@]3(CCC(=O)[C@H]32)[C@@H](C)[C@@H]1O	≥ 64	8 (≈ 15 µM)	≥ 64	8 (≈ 15 µM)	≥ 64	2 (≈ 3.76 µM)	2 (≈ 3.76 µM)	–	–	–	–	–	–	–
C=C[C@]1(C)C[C@@H](OC(=O)CSc2ncnc(OCCC)n2)[C@]2(C)[C@H](C)CC[C@]3(CCC(=O)[C@H]32)[C@@H](C)[C@@H]1O	≥ 64	16 (≈ 30.1 µM)	≥ 64	16 (≈ 30.1 µM)	≥ 64	8 (≈ 15 µM)	16 (≈ 30.1 µM)	–	–	–	–	–	–	–
C=C[C@]1(C)C[C@@H](OC(=O)CSc2ncnc(NC)n2)[C@]2(C)[C@H](C)CC[C@]3(CCC(=O)[C@H]32)[C@@H](C)[C@@H]1O	≥ 64	0.5 (≈ 0.995 µM)	≥ 64	0.25 (≈ 0.497 µM)	32 (≈ 63.7 µM)	0.125 (≈ 0.249 µM)	0.125 (≈ 0.249 µM)	–	–	–	–	–	–	–
C=C[C@]1(C)C[C@@H](OC(=O)CSc2ncnc(N)n2)[C@]2(C)[C@H](C)CC[C@]3(CCC(=O)[C@H]32)[C@@H](C)[C@@H]1O	≥ 64	0.25 (≈ 0.512 µM)	≥ 64	0.125 (≈ 0.256 µM)	16 (≈ 32.7 µM)	0.125 (≈ 0.256 µM)	0.125 (≈ 0.256 µM)	–	–	–	–	–	–	–
C=C[C@]1(C)C[C@@H](OC(=O)CSc2ncnc(N(CC)CC)n2)[C@]2(C)[C@H](C)CC[C@]3(CCC(=O)[C@H]32)[C@@H](C)[C@@H]1O	≥ 64	0.125 (≈ 0.229 µM)	≥ 64	0.25 (≈ 0.459 µM)	≥ 64	0.25 (≈ 0.459 µM)	0.125 (≈ 0.229 µM)	–	–	–	–	–	–	–
C=C[C@]1(C)C[C@@H](OC(=O)CSc2ncnc(NCCN3CCOCC3)n2)[C@]2(C)[C@H](C)CC[C@]3(CCC(=O)[C@H]32)[C@@H](C)[C@@H]1O	≥ 64	0.25 (≈ 0.415 µM)	≥ 64	0.125 (≈ 0.208 µM)	32 (≈ 53.2 µM)	0.125 (≈ 0.208 µM)	0.063 (≈ 0.105 µM)	–	–	–	–	–	–	–
C=C[C@]1(C)C[C@@H](OC(=O)CSc2ncnc(Cl)n2)[C@]2(C)[C@H](C)CC[C@]3(CCC(=O)[C@H]32)[C@@H](C)[C@@H]1O	≥ 64	8 (≈ 15.7 µM)	≥ 64	8 (≈ 15.7 µM)	32 (≈ 63 µM)	2 (≈ 3.94 µM)	4 (≈ 7.87 µM)	–	–	–	–	–	–	–
C=C[C@]1(C)C[C@@H](OC(=O)CSc2ncnc(N3CCOCC3)n2)[C@]2(C)[C@H](C)CC[C@]3(CCC(=O)[C@H]32)[C@@H](C)[C@@H]1O	≥ 64	0.125 (≈ 0.224 µM)	≥ 64	0.063 (≈ 0.113 µM)	32 (≈ 57.3 µM)	0.125 (≈ 0.224 µM)	0.063 (≈ 0.113 µM)	Dose-Dependent Effect	Dose-Dependent Effect	–	–	–	–	–
C=C[C@]1(C)C[C@@H](OC(=O)CSc2ncnc(OCC)n2)[C@]2(C)[C@H](C)CC[C@]3(CCC(=O)[C@H]32)[C@@H](C)[C@@H]1O	≥ 64	0.25 (≈ 0.483 µM)	≥ 64	0.125 (≈ 0.241 µM)	32 (≈ 61.8 µM)	0.25 (≈ 0.483 µM)	0.125 (≈ 0.241 µM)	–	–	–	–	–	–	–
C=C[C@]1(C)C[C@@H](OC(=O)CSc2ncnc(NCCN(C)C)n2)[C@]2(C)[C@H](C)CC[C@]3(CCC(=O)[C@H]32)[C@@H](C)[C@@H]1O	≥ 64	0.125 (≈ 0.223 µM)	≥ 64	0.063 (≈ 0.113 µM)	16 (≈ 28.6 µM)	0.063 (≈ 0.113 µM)	0.031 (≈ 0.0554 µM)	Dose-Dependent Effect	Dose-Dependent Effect	2.14	0.32	–	–	–
C=C[C@]1(C)C[C@@H](OC(=O)CSc2ncnc(NCCN3CCCC3)n2)[C@]2(C)[C@H](C)CC[C@]3(CCC(=O)[C@H]32)[C@@H](C)[C@@H]1O	≥ 64	0.125 (≈ 0.213 µM)	≥ 64	0.125 (≈ 0.213 µM)	32 (≈ 54.6 µM)	0.125 (≈ 0.213 µM)	0.063 (≈ 0.108 µM)	–	–	–	–	–	–	–
C=C[C@]1(C)C[C@@H](OC(=O)CSc2ncnc(OC3CCCC3)n2)[C@]2(C)[C@H](C)CC[C@]3(CCC(=O)[C@H]32)[C@@H](C)[C@@H]1O	≥ 64	16 (≈ 28.7 µM)	≥ 64	16 (≈ 28.7 µM)	≥ 64	8 (≈ 14.3 µM)	4 (≈ 7.17 µM)	–	–	–	–	–	–	–
C=C[C@]1(C)C[C@@H](OC(=O)CSc2ncnc(OC)n2)[C@]2(C)[C@H](C)CC[C@]3(CCC(=O)[C@H]32)[C@@H](C)[C@@H]1O	≥ 64	0.25 (≈ 0.496 µM)	≥ 64	0.25 (≈ 0.496 µM)	32 (≈ 63.5 µM)	0.125 (≈ 0.248 µM)	0.125 (≈ 0.248 µM)	–	–	–	–	–	–	–
C=C[C@]1(C)C[C@@H](OC(=O)CSc2ncnc(N3CCCC3)n2)[C@]2(C)[C@H](C)CC[C@]3(CCC(=O)[C@H]32)[C@@H](C)[C@@H]1O	≥ 64	0.25 (≈ 0.461 µM)	≥ 64	0.125 (≈ 0.23 µM)	32 (≈ 59 µM)	0.25 (≈ 0.461 µM)	0.125 (≈ 0.23 µM)	–	–	–	–	–	–	–
C=C[C@]1(C)C[C@@H](OC(=O)CSCCN(CC)CC)[C@]2(C)[C@H](C)CC[C@]3(CCC(=O)[C@H]32)[C@@H](C)[C@@H]1O [TIAMULIN]	≥ 64	0.5 (≈ 1.01 µM)	≥ 64	0.5 (≈ 1.01 µM)	16 (≈ 32.4 µM)	0.125 (≈ 0.253 µM)	0.25 (≈ 0.506 µM)	–	–	–	–	50	1.24	~2
C=C[C@]1(C)C[C@@H](OC(=O)CSc2ncnc(OCCCC)n2)[C@]2(C)[C@H](C)CC[C@]3(CCC(=O)[C@H]32)[C@@H](C)[C@@H]1O	≥ 64	0.25 (≈ 0.458 µM)	≥ 64	0.5 (≈ 0.916 µM)	≥ 64	4 (≈ 7.33 µM)	0.125 (≈ 0.229 µM)	–	–	–	–	–	–	–
C=C[C@]1(C)C[C@@H](OC(=O)CSc2ncnc(N3CCCCC3)n2)[C@]2(C)[C@H](C)CC[C@]3(CCC(=O)[C@H]32)[C@@H](C)[C@@H]1O	≥ 64	0.125 (≈ 0.225 µM)	≥ 64	0.125 (≈ 0.225 µM)	32 (≈ 57.5 µM)	0.5 (≈ 0.898 µM)	0.063 (≈ 0.113 µM)	–	–	–	–	–	–	–
C=C[C@]1(C)C[C@@H](OC(=O)CSc2ncnc(NCCNCC)n2)[C@]2(C)[C@H](C)CC[C@]3(CCC(=O)[C@H]32)[C@@H](C)[C@@H]1O	≥ 64	0.25 (≈ 0.447 µM)	≥ 64	0.125 (≈ 0.223 µM)	32 (≈ 57.2 µM)	0.25 (≈ 0.447 µM)	0.063 (≈ 0.113 µM)	–	–	–	–	–	–	–
C=C[C@]1(C)C[C@@H](OC(=O)CSc2ncnc(NCCNC)n2)[C@]2(C)[C@H](C)CC[C@]3(CCC(=O)[C@H]32)[C@@H](C)[C@@H]1O	≥ 64	0.25 (≈ 0.458 µM)	≥ 64	0.25 (≈ 0.458 µM)	32 (≈ 58.6 µM)	0.013 (≈ 0.0238 µM)	0.063 (≈ 0.115 µM)	–	–	–	–	–	–	–
C=C[C@]1(C)C[C@@H](OC(=O)CSc2ncnc(N3CCNCC3)n2)[C@]2(C)[C@H](C)CC[C@]3(CCC(=O)[C@H]32)[C@@H](C)[C@@H]1O	≥ 64	2 (≈ 3.59 µM)	≥ 64	2 (≈ 3.59 µM)	≥ 64	0.25 (≈ 0.448 µM)	1 (≈ 1.79 µM)	–	–	–	–	–	–	–
